The results in this text go back to EP0997137B1 (Société des Produits Nestlé S.A., priority 1998, dated 2000).

Data set [1] has as its system TNF-α secretion of keratinocytes which are treated with TPA. As to the kind of experiment: TNF-α secretion by TPA-treated immortalized human keratinocytes (ELISA of supernatant). The data set is classed as cell-based. The settings on record: for % of the control: control: TPA without piperonal. The method, then: These keratinocytes (cf. WO97/23602) are treated in this connection with inflammation-promoting substances, more specifically with a known skin irritant in the form of a phorbol ester (12-O-tetradecanoylphorbol acetate, abbreviated to TPA), and as a response to this treatment they display a typical inflammatory metabolic reaction, in particular an increase in the secretion of the inflammation-promoting cytokine TNF-α (tumour necrosis factor alpha).
A substance which inhibits the secretion of TNF-α in the case of TPA-treated keratinocytes in the above model in a dose-dependent manner is regarded as a potentially anti-inflammatory substance.
(§1) Specifically, the test is carried out by subjecting in vitro human keratinocytes, immortalized in culture, to an inflammation-promoting treatment using the abovementioned 12-O-tetradecanoylphorbol 13-acetate (TPA). The immortalized keratinocyte cell lines used are the cell lines DK2, FK2 or else DK7, which are described in the published International Patent Application WO 97/23602. The cell lines FK2 and DK2 were deposited on 5 October 1995 in accordance with the Budapest Treaty at the DSM depository (Deutsche Sammlung für Mikroorganismen und Zellkulturen GmbH, Mascheroder Weg 1b, D-38124 Braunschweig, Germany) and were given the deposit names DSM ACC2240 and DSM ACC2238. The cell line DK7-NR was deposited on 19 March 1998 at the Pasteur Institute, Paris (CNCM) under the number
I-1996. It is also possible to use an immortalized keratinocyte line HaCaT, which is described by Boukamp et al. in J. Cell. Biol., 106, 761-771, 1988).
Petri dishes (6 cm diameter), which contain 4 ml of the serum-free nutrient medium NR-2 (cf. WO97/23602; Biofluids), were inoculated with the abovementioned immortalized keratinocyte cell lines. As soon as confluence of the cell lawn was observed, the nutrient medium was replaced by a fresh, calcium-enriched nutrient medium NR-2 (1.5 mM CaCl2). The dishes were incubated for 2 days, the nutrient medium was replaced by fresh nutrient medium and the dishes were incubated for a further 2 days. […] In parallel, an identical batch without piperonal additive was prepared.
(§2) During the last 24 h of the above mentioned incubation, TPA in ethanol or a corresponding amount of ethanol was added in an amount of 10 ng/ml. The supernatants were then isolated and, by means of a known ELISA assay (Ruwag AG, Zurich, Switzerland) using specific antibodies to TNF-α (BioSource Inter., US, catalogue numbers KHC0012 and KHC3013), the concentration of TNF-α in the supernatant was determined.
For orientation: ELISA stands for enzyme-linked immunosorbent assay.

For data set [2], the system named is TNF-α secretion of keratinocytes. As to the kind of experiment: Control experiments without TPA: TNF-α secretion by immortalized human keratinocytes (ELISA of supernatant). It counts as cell-based. On the procedure: as §1
Petri dishes (6 cm diameter), which contain 4 ml of the serum-free nutrient medium NR-2 (cf. WO97/23602; Biofluids), were inoculated with the abovementioned immortalized keratinocyte cell lines. As soon as confluence of the cell lawn was observed, the nutrient medium was replaced by a fresh, calcium-enriched nutrient medium NR-2 (1.5 mM CaCl2). The dishes were incubated for 2 days, the nutrient medium was replaced by fresh nutrient medium and the dishes were incubated for a further 2 days.
as §2

For another data set, the system named is keratinocytes. As to the kind of experiment: Cytotoxic activity on the keratinocytes. The settings on record: concentrations used in the experiments (0.01-0.1%).
Setting [3] is: TPA + hydrocortisone (concentration not given).

For orientation: % inhibition means the change of the read-out against control, counted positive when it falls. As for `C[C@]12CCC(=O)C=C1CC[C@@H]1[C@@H]2[C@@H](O)C[C@@]2(C)[C@H]1CC[C@]2(O)C(=O)CO` [hydrocortisone, reference compound], the “Amount of TNF-α determined” value in data set [1] (TPA 10 ng/ml + hydrocortisone (concentration not given)) was 220.4 pg/mL. Further, in data set [1] (setting [3]), the “% inhibition” value was 26.4% and the “% of the control” value came out at 73.6%.

With `O=Cc1ccc2c(c1)OCO2` [piperonal, 3,4-(methylenedioxy)benzaldehyde], the “Amount of TNF-α determined” value worked out at 331.2 pg/mL in data set [1] (TPA 10 ng/ml + 0.01% of piperonal); 78.1 pg/mL in data set [1] (TPA 10 ng/ml + 0.05% of piperonal); 100.6 pg/mL in data set [1] (TPA 10 ng/ml + 0.1% of piperonal); 7.9 pg/mL in data set [2] (No TPA + 0.01% of piperonal); 8.9 pg/mL in data set [2] (No TPA + 0.05% of piperonal); 6.3 pg/mL in data set [2] (No TPA + 0.1% of piperonal). Moreover, the “% of the control” value in data set [1] (TPA + 0.01% of piperonal) is recorded as 110.6%; in data set [1] (TPA + 0.05% of piperonal), 26.1%; in data set [1] (TPA + 0.1% of piperonal), 33.6%. The “% inhibition” value in data set [1] (TPA + 0.05% of piperonal) stood at 73.9%; in data set [1] (TPA + 0.1% of piperonal) it was 66.4%. Also, the cytotoxic activity result in the data set with keratinocytes was “does not exhibit cytotoxic activity”.
